From US20200230136A1, “SELECTIVE ADRENORECEPTOR ALPHA2C RECEPTOR ANTAGONISTS ALONE, OR IN COMBINATION WITH CHYMASE INHIBITORS FOR USE IN THE TREATMENT AND/OR PROPHYLAXIS OF PERIPHERAL ARTERY DISEASES (PAD)” (Bayer Aktiengesellschaft, priority 2017, published 2020)

Key:
Type in all cases: in vivo
[1] = system: full-thickness wounds in STZ-challenged minipigs; assay: Wound healing in streptozotocin (STZ)-challenged minipigs
Procedure: Wounds (twelve 15.15-mm full-thickness wounds) were induced in STZ-challenged minipigs. STZ challenge (160 mg/kg) was performed 14 days before wounding in 15 animals, two out of 15 animals had to be sacrificed due to blood glucose instability. The remaining 13 animals (body weight around 25 kg: 27.92±2.35 kg on the day of STZ dosing, Day 0: 24.35±2.14 kg and Day 17: 23.27±2.24 kg) were randomized to 3 groups:
Group I) placebo: Animal 1, 8, 10 and 13; Group II) 0.6 mg/kg Compound of Ex 8: Animal 2, 7, 11 and 12; Group III) 0.1 mg/kg Compound of Ex. 8: Animal 3, 4, 6, 14 and 15
Oral gavage was done by gelatin capsules containing Compound of Ex. 8 or lactose as placebo (25 kg body weight was assumed for all animals).
Topical treatment was performed using Compound of Ex. 8 in a concentration of 0.06 mg/mL in a Pluronic® gel matrix or as placebo Pluronic® gel at a volume of 1 mL per wound. The whole study was performed in a blinded manner. The 12 wounds per animal were treated according to Table 1 to combine oral treatment with and without topical treatment in this study. Wounds were closed by a sterile reclosable bag system. Animals were treated orally BID for 17 days starting after wounding (Day 0) and topically once daily on Days 0, 2, 5, 8, 11 and 14. On Day 17, wounds were harvested and animals sacrificed.
The primary endpoint of this study was wound size over study time. Wound size was evaluated via photographs and evaluated by photoshop under blinded conditions. Wound size was shown in absolute numbers as well as percent size vs. wound size on Day 0. In addition, re-epithelialization as well as wound contracture were determined The mean of all 12 wounds per animal was compared to Day 0. […] Between Day 5 and Day 11, a differentiation between the animals was observed.

[2] = system: diabetic ZDF fa/fa rats, ligature of the left iliac artery; assay: Effects on ankle-brachial index in ZDF rats (unilateral hindlimb ischemia model)
Procedure: Compound of Ex. 8 induced a 10 to 30% improvement in the perfusion index (FIG. 7). […] Corresponding plasma concentrations were measured between 4 and 47 μg/L.
FIG. 6: Effects of Compound of Ex. 8 on perfusion pressure indices. Shown are baseline value (Od) as well as perfusion pressure indices after ligature of the left iliac artery and 2 weeks of daily treatment (14 d) with Compound of Ex. 8 in diabetic ZDF fa/fa rats (raw data; 10 animals) • Student t-test, Compound of Ex. 8 versus vehicle; ZDF=Zucker diabetic fatty
FIG. 7: Percent change in perfusion pressure indices by Compound of Ex. 8 after 14 days (14 d) of daily treatment compared to baseline values (mean±SEM; 10 animals) • SEM=standard error of mean; ZDF=Zucker diabetic fatty

[3] = system: atherosclerotic ApoE-/- mice, hindlimb ischemia; assay: Effects on running distance in apolipoprotein E knockout mice after hindlimb ischemia
Procedure: To evaluate effects more closely, the percent change in running distance compared to the run-in values (2 week run-in period before ligature) of all animals were analyzed.
FIG. 8: Effects of Compound of Ex. 8 on daily running distance in atherosclerotic ApoE-/- mice before and after induction of bilateral hindlimb ischemia (mean±SEM; 10 to 11 animals) • ApoE-/-=apolipoprotein E knockout; Ctrl.=control; SEM=standard error of mean

[4] = system: ischemic wounds in New Zealand white rabbits; assay: Wound healing in the ischemic rabbit ear model
Procedure: Ischemic wounds (three 7 mm full-thickness dermal punches on the inner surface of both ears) were induced in New Zealand white rabbits. Oral gavage was done through a nasogastric tube or catheter. 20 rabbits were treated with Compound of Ex. 8 (0.3 mg/kg; n=10) or vehicle (10% ethanol, 30% PEG 400, 60% tap water, n=10) through the catheter daily at multiple time points [post-wounding days (POD) 3, 4, 5, 6 and 7]. Wounds were harvested on POD 10. For histologic analysis, one-half of wounds including the surrounding normal skin in rectangular shape was taken. One-half of the wound was frozen for further molecular analysis. Tissues underwent routine processing, paraffin embedding, and sectioning. A 4 μm cross section through the center of each rectangular biopsy was taken. The tissues were stained with hematoxylin and eosin and examined under light microscopy. Several histomorphometric measurements were determined, using a digital image analysis system (NIS-Elements Basic Research; Nikon Instech Co, Kanagawa, Japan) at 2 fold and 10 fold magnification. Each parameter was measured in a blinded manner.
In addition, tissue oxygen tension and blood flow were examined by the OxyLite® system (Oxford Optronix). Oxygen tension and blood flow were measured on POD 3, 7 and 10 in each rabbit. The oxygen tension unit is mmHg and the blood flow unit is blood PUs. The results were presented as ratio of O2-ischemia/O2-non-ischemia, or flow-ischemia/flow-non-ischemia. Analysis was performed by comparison between control and treatment groups on POD 3, 7 and 10.

[5] = 0.6 mg treated wounds vs placebo

With O=C(c1cnc(N2CC3(COC3)C2)nc1)N1CCC(N2CCc3ccccc3C2)CC1 [Compound of Ex. 8, [4-(3,4-Dihydroisoquinolin-2(1H)-yl)piperidin-1-yl][2-(2-oxa-6-azaspiro[3.3]hept-6-yl)pyrimidin-5-yl]methanone] the “wound size, wounds without topical treatment (Wounds 1 to 6)” value ([1]; 0.1 mg/kg oral BID vs placebo, Day 2 (P=0.011) and Day 5 (P=0.014)) was “significant improvement vs. placebo”, the wound contracture ([1]; 0.1 mg/kg oral BID, Day 2, 5, 8, 11 and 17) was “improvement in wound contracture being significant” and the “course of wound healing (variability)” value ([1]; 0.1 mg/kg oral BID, between Day 5 and Day 11) was “greater heterogeneity”. For the same compound, the “histology: cell proliferation” value [1, 5] was “reduced cell proliferation”, the “histology: collagen III/I ratio” value [1, 5] was “lower collagen III/I ratio” and the “histology: detectable vessels” value [1, 5] was “more detectable vessels”. For the same compound, the “histology: differentiation level of the epidermis” value [1, 5] was “increased differentiation level of the epidermis”, the “histology: inflammation” value [1, 5] was “reduced inflammation” and the “histology: re-epithelialization level” value [1, 5] was “higher re-epithelialization level”. For the same compound, the “histology: structuring of basement membranes defined by laminin detection” value [1, 5] was “increased structuring of basement membranes”, the “histological evaluation of wound healing” value ([1]; 0.6 mg treated wounds vs placebo, wounds harvested Day 17) was “more advanced wound healing” and the “wound size over time, mean of all wounds” value ([1]; 0.6 mg/kg oral BID 17 days vs placebo, all 12 wounds per animal, all days (FIG. 1)) was “significantly improved wound healing”. For the same compound, the “wound size, wounds without topical treatment (Wounds 1 to 6)” value ([1]; 0.6 mg/kg oral BID vs placebo, all values (FIG. 2)) was “significantly better compared to the placebo group”, the wound contracture ([1]; 0.6 mg/kg oral BID, Day 2, 5, 8 and 11) was “improvement in wound contracture being significant” and the “difference in wound size vs placebo, wounds without topical treatment (Wounds 1 to 6)” value ([1]; 0.6 mg/kg oral BID, Day 8) was “about 21.6%”. For the same compound, the re-epithelialization ([1]; 0.6 mg/kg oral BID, Day 17, two animals of the group) was “complete and stable re-epithelialization”, the “speed of wound healing” value ([1]; 0.6 mg/kg oral BID, between Day 5 and Day 11, vs placebo and 0.1 mg/kg groups) was “quicker wound healing compared to the 2 other groups” and the “wound size, wounds without topical treatment (Wounds 1 to 6), dose comparison” value ([1]; 0.6 mg/kg vs 0.1 mg/kg group, Days 8, 11, 14 and 17) was “significantly better compared to the 0.1 mg/kg group”. The perfusion pressure ([2]; 0.3 mg/kg (most effective dose), 14 d daily treatment) was “significant increase in perfusion pressure”, the “muscle function in the ligated limb” value ([2]; 0.1, 0.3 and 1 mg/kg) was “slight tendency toward improved muscle function” and the perfusion indices ([2]; 0.1, 0.3 and 1 mg/kg, 2 weeks of daily treatment (FIG. 6)) was “increase in perfusion indices at all doses”. The “total running distance, percent change vs run-in values” ([3]; 10 μg/ml (FIG. 9)) was “tendency toward an improvement”, the “running distance, area under the curve from Day 0 to Day 28” value ([3]; 30 μg/kg vs placebo) was “significant improvements compared to placebo” and the “running distance, percent change vs run-in values” ([3]; 30 μg/kg, several days during the 4 week observation period (FIG. 10)) was “significant improvement in running distance”. The “running distance, area under the curve from Day 0 to Day 28” value ([3]; 100 μg/kg vs placebo) was “significant improvements compared to placebo”, the “running distance, percent change vs run-in values” ([3]; 100 μg/kg, several days during the 4 week observation period (FIG. 11)) was “significant improvement in running distance” and the running distance ([3]; oral administration of 10, 30 and 100 μg/mL, after induction of hindlimb ischemia (FIG. 8)) was “increase in running distance”. The granulation area ([4]; 0.3 mg/kg oral, POD 3-7, wounds harvested POD 10, P=0.07 vs control) was 133,630+20,208 μm^2, the epithelial gap ([4]; 0.3 mg/kg oral, POD 3-7, wounds harvested POD 10, no significant difference vs control) was 5,212+213 μm and the “blood flow ratio (flow-ischemia/flow-non-ischemia)” value ([4]; 0.3 mg/kg, POD 10, P=0.018 vs control) was 0.495. The “oxygen tension ratio (O2-ischemia/O2-non-ischemia)” value ([4]; 0.3 mg/kg, POD 10, P=0.079 vs control) was 0.238, the “change in blood flow ratio from POD 3 to POD 10” value ([4]; 0.3 mg/kg, same rabbit, P=0.108 vs control) was 0.149 and the “change in oxygen tension ratio from POD 3 to POD 10” value ([4]; 0.3 mg/kg, same rabbit, P=0.322 vs control) was 0.082.
